# Measured values: PMC2935307 (Biochemical pharmacology, 2010)
# “And” between values parts separate entries of the source, which are not always exact repeats. Equal entries are not always repeated. Where two headings read alike, the source gives them in different places.
# Experiments:
# [1] = target: T1, α4β2*-nAChR (Mus musculus, UniProt O70174+Q9ERK7); conditions: cited from earlier work
# [2] = target: T1, α4β2*-nAChR; test: biochemical
# [3] = target: high affinity epibatidine binding sites (Mus musculus, UniProt O70174+Q9ERK7); test: biochemical
# [4] = target: T1, α4β2*-nAChR; assay type: biochemical
# [5] = target: T1, α4β2*-nAChR; conditions: total efflux normalized to baseline
# [6] = test system: α4β2*-nAChR binding sites; conditions: mice treated chronically with nicotine; cited from earlier work
# [7] = test system: α4β2-nAChR; conditions: read-out: IC50 for desensitization by nicotine; transfected cells; cited from earlier work
# [8] = target: epibatidine binding sites (Mus musculus, UniProt O70174+Q9ERK7)
# [9] = IC50 for desensitization of the LS component
# [10] = HS EC50 for 86Rb+ efflux from Marks et al., 1999, errors by Taylor's expansion
# [11] = LS EC50 for 86Rb+ efflux from Marks et al., 1999, errors by Taylor's expansion
# [12] = cortex, nicotine infusion 0.5 mg/kg/hr
# [13] = cortex, nicotine infusion 4.0 mg/kg/hr
# [14] = thalamus, nicotine infusion 0.5 mg/kg/hr
# [15] = thalamus, nicotine infusion 4.0 mg/kg/hr
# Sequence of high affinity epibatidine binding sites (Q9ERK7 26-501): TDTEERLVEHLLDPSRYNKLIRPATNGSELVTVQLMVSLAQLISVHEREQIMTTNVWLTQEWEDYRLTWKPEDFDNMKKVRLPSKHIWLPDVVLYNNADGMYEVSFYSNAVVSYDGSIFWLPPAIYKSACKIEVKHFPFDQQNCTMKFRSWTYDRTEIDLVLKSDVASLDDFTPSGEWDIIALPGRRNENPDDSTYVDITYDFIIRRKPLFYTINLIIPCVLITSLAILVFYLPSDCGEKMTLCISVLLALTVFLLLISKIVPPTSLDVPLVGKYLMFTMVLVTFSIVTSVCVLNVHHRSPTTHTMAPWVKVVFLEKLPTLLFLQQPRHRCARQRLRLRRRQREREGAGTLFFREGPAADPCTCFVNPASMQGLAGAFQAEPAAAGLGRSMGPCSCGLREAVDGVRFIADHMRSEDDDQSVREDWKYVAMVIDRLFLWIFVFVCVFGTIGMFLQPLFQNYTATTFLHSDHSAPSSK
# Sequence of high affinity epibatidine binding sites (O70174 31-629): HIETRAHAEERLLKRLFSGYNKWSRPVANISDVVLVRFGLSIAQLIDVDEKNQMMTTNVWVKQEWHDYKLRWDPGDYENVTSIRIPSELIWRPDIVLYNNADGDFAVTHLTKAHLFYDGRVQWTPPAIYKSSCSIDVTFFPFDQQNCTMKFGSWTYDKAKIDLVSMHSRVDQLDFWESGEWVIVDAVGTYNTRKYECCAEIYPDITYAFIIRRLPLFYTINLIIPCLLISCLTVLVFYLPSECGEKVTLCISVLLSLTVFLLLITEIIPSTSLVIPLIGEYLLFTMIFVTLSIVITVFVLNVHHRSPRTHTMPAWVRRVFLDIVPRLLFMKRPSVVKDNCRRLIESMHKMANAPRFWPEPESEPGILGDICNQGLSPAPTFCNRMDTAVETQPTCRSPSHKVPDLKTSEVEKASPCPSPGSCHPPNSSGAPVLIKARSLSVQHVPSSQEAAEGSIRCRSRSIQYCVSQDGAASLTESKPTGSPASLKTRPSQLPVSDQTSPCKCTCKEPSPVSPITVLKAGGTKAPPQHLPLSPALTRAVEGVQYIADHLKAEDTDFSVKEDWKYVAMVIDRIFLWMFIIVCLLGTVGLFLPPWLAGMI
# Sequence of epibatidine binding sites (Q9ERK7 26-501): as the sequence (Q9ERK7 26-501) above
# Sequence of epibatidine binding sites (O70174 31-629): as the sequence (O70174 31-629) above
# T1 sequence (Q9ERK7 26-501): as the sequence (Q9ERK7 26-501) above
# T1 sequence (O70174 31-629): as the sequence (O70174 31-629) above
compound,measurement,setting,value
"Clc1ccc(C2CC3CCC2N3)cn1 (racemic) [epibatidine, (±)-epibatidine]",Difference in EC50 values for stimulation of HS and LS responses,[1]; mouse brain synaptosomes,39 fold
same,Ratio KI High Affinity Binding/Desensitization IC50,[2],0.065±0.022
same,Ratio: HS EC50/Desensitization IC50,[2],154±44
same,Ratio: LS EC50/Desensitization IC50,[2],6000 and 6000±870
same,IC50,[2]; IC50 Desensitization,0.37 ± 0.02 nM
same,IC50,[2]; IC50 for desensitization of the HS component,0.33 ± 0.09 nM
same,IC50,[2]; [9],0.38 ± 0.09 nM
same,Ki,[3],0.024 ± 0.008 nM
same,% des,[4],69.9 ± 6.1% and 64.5 ± 11.7% and 96.7 ± 8.9% and 93.8 ± 7.4%
"CNC(=O)OCC[N+](C)(C)C.[Cl-] [methylcarbachol, methycarbachol chloride]",Difference in EC50 values for stimulation of HS and LS responses,[1]; mouse brain synaptosomes,38 fold
same,Ratio: HS EC50/Desensitization IC50,[2]; [10],380
same,Ratio: LS EC50/Desensitization IC50,[2]; [11],"56,000"
same,Ratio KI High Affinity Binding/Desensitization IC50,[2]; errors by Taylor's expansion,0.156±0.042
same,Ki,"[3]; read-out: Ki, high affinity epibatidine binding",7.9 ± 1.7 nM
same,% des,[4],50.9 ± 8.8% and 56.0 ± 8.1% and 94.3 ± 7.3% and 88.7 ± 6.4%
O=c1cccc2n1C[C@@H]1CNC[C@H]2C1 [cytisine],Difference in EC50 values for stimulation of HS and LS responses,[1],"11,500 fold"
same,Ratio KI High Affinity Binding/Desensitization IC50,[2],0.119±0.011
same,Ratio: HS EC50/Desensitization IC50,[2]; [10],4.8
same,IC50,[2]; IC50 Desensitization,2.7 ± 0.2 nM
same,IC50,[2]; [9],5.4 ± 1.4 nM
same,Ratio: LS EC50/Desensitization IC50,[2]; [11],56000±23000
same,Ki,[3],0.32 ± 0.02 nM
CN1CCC[C@H]1c1cccnc1 [nicotine],High Sensitivity 86Rb+ Efflux (maximal),[5]; [12],2.06±0.19
same,Low Sensitivity 86Rb+ Efflux (maximal),[5]; [12],6.80±0.50
same,High Sensitivity 86Rb+ Efflux (maximal),[5]; [13],1.88±0.11
same,Low Sensitivity 86Rb+ Efflux (maximal),[5]; [13],5.63±0.80
same,High Sensitivity 86Rb+ Efflux (maximal),[5]; [14],10.19±0.99
same,Low Sensitivity 86Rb+ Efflux (maximal),[5]; [14],13.84±2.48
same,High Sensitivity 86Rb+ Efflux (maximal),[5]; [15],6.76±1.19
same,Low Sensitivity 86Rb+ Efflux (maximal),[5]; [15],12.52±1.96
same,average dose for half-maximal upregulation of α4β2*-nAChR binding sites,[6],0.44 mg/kg/h
same,Difference in EC50 values for stimulation of HS and LS responses,[1],94 fold
same,[125I]-Epibatidine Bound,[8]; [12],127.9±1.1 fmol/mg protein
same,[125I]-Epibatidine Bound,[8]; [13],139.0±1.2 fmol/mg protein
same,[125I]-Epibatidine Bound,[8]; [14],240.7±2.5 fmol/mg protein
same,[125I]-Epibatidine Bound,[8]; [15],256.8±2.9 fmol/mg protein
